Data as given in publication PMC7469689, “Substituted 4,5′-Bithiazoles as Catalytic Inhibitors of Human DNA Topoisomerase IIα” (Journal of Chemical Information and Modeling, 2020).

Legend:
human topo IIα [1] = biological target: T1, human topo IIα (Homo sapiens, UniProt P11388); assay: HTS relaxation assay of human topo IIα; format: biochemical
T1 construct: purchased Inspiralis (Norwich, U.K.)

human topo IIα [2] = biological target: T1, human topo IIα; assay: Human topo IIα-mediated kDNA decatenation assay; format: biochemical
Description: (§1) We made use of the human topo II decatenation assay kit from Inspiralis (Norwich, U.K.) to assess the ability of selected compounds to impede DNA decatenation.[89],[90] It was performed for topo IIα and topo IIβ isoforms using the protocol as described previously.[35]

MCF-7 cells = assay: MTS cytotoxicity assay, MCF-7; format: cell-based, human; settings: 24 h, one concentration (200, 100 or 50 μM by solubility), vs untreated control
Source text: (§2) We have determined the cytotoxicity of the compounds using the human breast cancer MCF-7 and human hepatocellular carcinoma HepG2 cancer cell lines by standard 3-(4,5-dimethylthiazol-2-yl)-5-(3-carboxymethoxyphenyl)-2-(4-sulfophenyl)-2H-tetrazolium (MTS) assay.[65] The two selected human cancer cell lines are representative and well-established systems for the cell-based evaluation of potential cancer drugs. Etoposide was again used as a positive control (PC). We performed initial screening of compounds 1–14 at one concentration.
(§3) Cytotoxic activity of studied compounds was determined in two human cancer cell lines: hepatocellular carcinoma (HepG2) and breast cancer (MCF-7) cells. Both cell lines were obtained from ATCC. […] After the exposure of cells to the tested compounds, their viability was determined using the MTS assay.
(§4) The cells were seeded at densities of 8000 and 7000 cells/well for HepG2 and MCF-7 cells, respectively, in 200 μL of complete growth medium onto 96-well microtiter plates (Nunc, Thermo Fisher Scientific, Waltham, MA) and were left overnight at 37 °C to attach. […] After 3 h incubation (37 °C, 5% CO2), the absorbance was determined at 490 nm using a spectrofluorometer Synergy MX (BioTek, Winooski, VT). […] Cell viability was calculated by comparing the optical density (OD) of the wells with exposed cells with the wells of solvent control cells, and the results are shown as percentage of cell viability ± SD. […] The EC50 values were determined utilizing nonlinear regression analysis available in GraphPad Prism 7.0 software. Statistically significant difference between control and treated groups was determined by one-way analysis of variance combined with Dunnett’s multiple comparison test.

HepG2 cells = assay: MTS cytotoxicity assay, HepG2; format: cell-based, human; settings: 24 h, one concentration (200, 100 or 50 μM by solubility), vs untreated control
Source text: as §2, §3, §4

bacterial DNA gyrase = biological target: bacterial DNA gyrase; set-up: method as in earlier work; settings: previous virtual screening campaign; cited from earlier work
Solubility observations = format: physicochemical; settings: cell growth medium
human topo IIα [3] = biological target: T1, human topo IIα; assay: Human topo IIα-mediated cleavage assay; format: biochemical; settings: for linear DNA formation in cleavage assay (in words): four concentrations
Source text: To determine whether compounds act as catalytic inhibitors, a cleavage assay was next performed for compounds 1 and 9.
We performed the assay in collaboration with Inspiralis (Norwich, U.K.).

human topo IIβ = biological target: T2, human topo IIβ (Homo sapiens, UniProt Q02880); assay: Human topo IIβ-mediated kDNA decatenation assay; format: biochemical
T2 construct: purchased Inspiralis (Norwich, U.K.)
T2 sequence (Q02880 whole entry): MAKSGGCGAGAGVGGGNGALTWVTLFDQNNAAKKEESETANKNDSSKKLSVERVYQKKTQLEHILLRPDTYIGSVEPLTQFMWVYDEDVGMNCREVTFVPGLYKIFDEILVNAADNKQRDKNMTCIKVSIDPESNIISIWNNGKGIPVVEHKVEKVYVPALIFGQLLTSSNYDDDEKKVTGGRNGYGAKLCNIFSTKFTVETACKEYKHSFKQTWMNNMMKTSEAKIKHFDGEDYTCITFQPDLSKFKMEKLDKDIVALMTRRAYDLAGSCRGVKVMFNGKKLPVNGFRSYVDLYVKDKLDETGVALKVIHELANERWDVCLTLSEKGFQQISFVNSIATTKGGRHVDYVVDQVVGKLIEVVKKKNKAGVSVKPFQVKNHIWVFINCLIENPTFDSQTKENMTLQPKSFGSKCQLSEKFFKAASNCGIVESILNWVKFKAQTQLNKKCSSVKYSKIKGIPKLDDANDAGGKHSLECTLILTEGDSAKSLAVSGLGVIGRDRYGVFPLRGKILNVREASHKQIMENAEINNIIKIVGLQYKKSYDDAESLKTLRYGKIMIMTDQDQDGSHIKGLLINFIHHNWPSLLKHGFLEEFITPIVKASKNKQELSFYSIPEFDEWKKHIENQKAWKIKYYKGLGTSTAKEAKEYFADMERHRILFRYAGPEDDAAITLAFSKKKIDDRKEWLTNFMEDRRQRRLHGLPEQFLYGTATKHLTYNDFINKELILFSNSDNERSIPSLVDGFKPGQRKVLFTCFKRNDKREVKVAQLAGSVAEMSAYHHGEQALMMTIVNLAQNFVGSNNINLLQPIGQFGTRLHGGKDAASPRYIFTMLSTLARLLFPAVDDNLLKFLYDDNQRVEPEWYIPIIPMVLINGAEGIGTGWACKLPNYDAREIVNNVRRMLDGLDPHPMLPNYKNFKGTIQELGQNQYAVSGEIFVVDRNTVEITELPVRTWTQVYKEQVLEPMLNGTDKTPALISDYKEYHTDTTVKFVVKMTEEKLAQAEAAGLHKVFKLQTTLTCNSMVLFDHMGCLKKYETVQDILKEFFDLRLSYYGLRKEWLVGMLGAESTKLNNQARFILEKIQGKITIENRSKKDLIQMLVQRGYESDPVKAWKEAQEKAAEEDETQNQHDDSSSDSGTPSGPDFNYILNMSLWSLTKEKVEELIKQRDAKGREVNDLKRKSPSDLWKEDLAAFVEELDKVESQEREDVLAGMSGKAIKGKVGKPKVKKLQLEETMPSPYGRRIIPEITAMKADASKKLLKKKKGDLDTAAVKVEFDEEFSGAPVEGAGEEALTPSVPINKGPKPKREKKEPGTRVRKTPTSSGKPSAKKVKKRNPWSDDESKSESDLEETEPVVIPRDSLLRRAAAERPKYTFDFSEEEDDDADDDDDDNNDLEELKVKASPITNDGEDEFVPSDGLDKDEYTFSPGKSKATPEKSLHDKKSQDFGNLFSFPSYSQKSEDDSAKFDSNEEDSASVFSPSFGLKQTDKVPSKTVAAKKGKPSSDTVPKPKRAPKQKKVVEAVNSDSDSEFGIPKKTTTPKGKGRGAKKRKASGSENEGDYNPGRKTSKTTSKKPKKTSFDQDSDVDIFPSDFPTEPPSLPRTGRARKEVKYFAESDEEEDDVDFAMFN
Description: We were also interested in whether compounds can act on both isoforms of the human topo II. Thus, we performed human topo IIβ decatenation assays for compounds 1 and 9. […] (see also Tables S5 and S6 for more details).
as §1

human topo IIα [4] = biological target: T1, human topo IIα; assay: ATPase activity (ATP hydrolysis) assay, pyruvate kinase/lactate dehydrogenase coupled; format: biochemical
[5] = set-up: method as in doi:10.1039/jr9480002240; settings: first protonation on the ring nitrogen; cited from earlier work
[6] = 500 μM (compound 1: solubility problems, erratic readings)

T1 sequence (P11388 whole entry): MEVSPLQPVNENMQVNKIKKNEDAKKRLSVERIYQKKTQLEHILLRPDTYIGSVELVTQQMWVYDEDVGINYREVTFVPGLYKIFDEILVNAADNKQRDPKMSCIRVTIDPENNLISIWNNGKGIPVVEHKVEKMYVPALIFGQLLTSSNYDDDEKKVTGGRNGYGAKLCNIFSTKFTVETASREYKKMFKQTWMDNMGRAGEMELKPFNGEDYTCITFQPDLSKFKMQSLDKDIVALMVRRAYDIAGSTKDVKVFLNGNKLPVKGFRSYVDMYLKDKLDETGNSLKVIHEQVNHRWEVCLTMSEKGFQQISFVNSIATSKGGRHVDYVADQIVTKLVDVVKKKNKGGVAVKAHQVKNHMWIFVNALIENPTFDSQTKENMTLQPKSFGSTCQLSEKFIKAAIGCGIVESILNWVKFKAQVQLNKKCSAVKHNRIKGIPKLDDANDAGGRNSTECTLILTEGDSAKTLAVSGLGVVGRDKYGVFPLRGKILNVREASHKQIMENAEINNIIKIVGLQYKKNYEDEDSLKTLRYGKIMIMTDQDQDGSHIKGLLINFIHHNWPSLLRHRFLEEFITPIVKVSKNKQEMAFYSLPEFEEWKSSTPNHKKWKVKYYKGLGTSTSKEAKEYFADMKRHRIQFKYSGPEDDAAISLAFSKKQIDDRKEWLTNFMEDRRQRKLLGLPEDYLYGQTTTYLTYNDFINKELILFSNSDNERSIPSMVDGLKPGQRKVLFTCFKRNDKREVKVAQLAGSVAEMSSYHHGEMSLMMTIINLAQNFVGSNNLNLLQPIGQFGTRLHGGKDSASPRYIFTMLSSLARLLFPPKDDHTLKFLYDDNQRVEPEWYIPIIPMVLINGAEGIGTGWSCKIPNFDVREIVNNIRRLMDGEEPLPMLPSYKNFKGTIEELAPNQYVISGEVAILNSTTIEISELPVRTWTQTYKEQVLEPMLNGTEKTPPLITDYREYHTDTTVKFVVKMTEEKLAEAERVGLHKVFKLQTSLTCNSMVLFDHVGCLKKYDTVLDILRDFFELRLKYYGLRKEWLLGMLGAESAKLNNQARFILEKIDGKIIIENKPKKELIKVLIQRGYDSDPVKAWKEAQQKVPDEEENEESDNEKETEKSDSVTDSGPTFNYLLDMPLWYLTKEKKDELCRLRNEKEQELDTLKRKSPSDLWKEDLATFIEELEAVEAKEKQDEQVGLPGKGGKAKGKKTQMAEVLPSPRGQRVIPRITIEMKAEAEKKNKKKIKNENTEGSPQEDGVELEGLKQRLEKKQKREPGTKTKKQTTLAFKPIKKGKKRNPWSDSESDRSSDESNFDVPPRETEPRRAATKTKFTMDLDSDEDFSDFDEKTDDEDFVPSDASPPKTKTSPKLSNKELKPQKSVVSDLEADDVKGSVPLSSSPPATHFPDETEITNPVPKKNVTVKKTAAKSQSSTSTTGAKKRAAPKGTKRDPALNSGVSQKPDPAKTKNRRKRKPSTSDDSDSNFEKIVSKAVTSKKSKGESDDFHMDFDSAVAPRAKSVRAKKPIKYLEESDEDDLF

## COc1ccc(Nc2nc(-c3sc(NC(C)=O)nc3C)cs2)cc1 [Compound 10]
Human topo IIα [1]
  IC50: 22.7 µM
Human topo IIα [2]; 125 μM
  inhibition at 125 µM: 26%
Human topo IIα [2]; 500 μM
  inhibition at 500 µM: 64%

## CC(=O)Nc1nc(C)c(-c2csc(Nc3ccc(C(=O)O)cc3)n2)s1 [Compound 8]
Human topo IIα [1]
  IC50: 120 µM
MCF-7 cells
  reduction of cell viability, initial cytotoxicity screening: no or only minor effects
HepG2 cells
  reduction of cell viability, initial cytotoxicity screening: no or only minor effects
Bacterial DNA gyrase
  IC50: 5.5 µM

## Cc1cc(O)ccc1Nc1nc(-c2sc(N)nc2C)cs1 [Compound 2]
Human topo IIα [1]
  IC50: 35.8 µM

## CC(=O)c1ccc(Nc2nc(-c3sc(N)nc3C)cs2)cc1 [Compound 3]
Human topo IIα [1]
  IC50: 222 µM
Solubility observations
  solubility in the cell growth medium: low solubility

## CC(=O)Nc1nc(C)c(-c2csc(Nc3ccccc3)n2)s1 [Compound 14]
Human topo IIα [1]
  IC50: 357 µM

## CC(=O)Nc1nc(C)c(-c2csc(Nc3cccc(C(=O)O)c3)n2)s1 [Compound 11]
Human topo IIα [1]
  IC50: 134 µM
MCF-7 cells
  reduction of cell viability, initial cytotoxicity screening: no or only minor effects
HepG2 cells
  reduction of cell viability, initial cytotoxicity screening: no or only minor effects

## Cc1nc(N)sc1-c1csc(Nc2ccc(S(N)(=O)=O)cc2)n1 [Compound 5]
Human topo IIα [1]
  IC50: 70.1 µM
Bacterial DNA gyrase
  IC50: 8.2 µM

## Cc1nc(N)sc1-c1csc(Nc2ccc(C(=O)O)c(O)c2)n1 [Compound 6]
Human topo IIα [1]
  IC50: 37.7 µM
MCF-7 cells
  reduction of cell viability, initial cytotoxicity screening: no or only minor effects
HepG2 cells
  reduction of cell viability, initial cytotoxicity screening: no or only minor effects
Bacterial DNA gyrase
  IC50: 67 µM

## CC(=O)Nc1ccc(Nc2nc(-c3sc(NC(C)=O)nc3C)cs2)cc1 [Compound 9]
Human topo IIα [1]
  IC50: 60 µM
Human topo IIα [3]; 3.9 μM
  % Linear DNA (first column): 5.49%
  % Linear DNA (second column): 7.03%
Human topo IIα [3]; 31.5 μM
  % Linear DNA (first column): 7.77%
  % Linear DNA (second column): 6.75%
Human topo IIα [3]; 125 μM
  % Linear DNA (first column): 4.84%
  % Linear DNA (second column): 4.60%
Human topo IIα [3]; 500 μM
  % Linear DNA (first column): 2.95%
  % Linear DNA (second column): 2.25%
Human topo IIα [3]
  linear DNA formation in cleavage assay (in words): did not reveal a significant amount of linear DNA above the background level

## COc1cc([C@@H]2c3cc4c(cc3[C@@H](O[C@@H]3O[C@@H]5CO[C@@H](C)O[C@H]5[C@H](O)[C@H]3O)[C@H]3COC(=O)[C@H]23)OCO4)cc(OC)c1O [etoposide, reference compound]
Human topo IIβ; 3.9 μM
  % Decatenated Average: 100.0%
Human topo IIβ; 500 μM
  % Decatenated Assay 1: 15.0%
Human topo IIα [3]; 3.9 μM
  % Linear DNA (first column): 22.76%
  % Linear DNA (second column): 11.88%
Human topo IIα [3]; 31.5 μM
  % Linear DNA (first column): 33.00%
  % Linear DNA (second column): 36.26%
Human topo IIα [3]; 125 μM
  % Linear DNA (first column): 45.35%
  % Linear DNA (second column): 36.91%
Human topo IIα [3]; 500 μM
  % Linear DNA (first column): 43.03%
  % Linear DNA (second column): 48.40%
Human topo IIα [3]
  linear DNA formation in cleavage assay (in words): poison activity
Human topo IIα [4]; 3.9 μM
  Percentage ATPase activity Run 1: 52.71%
  Percentage ATPase activity Run 2: 51.94%
Human topo IIα [4]; 31.5 μM
  Percentage ATPase activity Run 1: 36.43%
  Percentage ATPase activity Run 2: 37.21%
Human topo IIα [4]; 125 μM
  Percentage ATPase activity Run 1: 30.23%
  Percentage ATPase activity Run 2: 37.21%
Human topo IIα [4]; [6]
  Percentage ATPase activity Run 1: 0%
  Percentage ATPase activity Run 2: 4.65%

## Nc1nccs1 [2-aminothiazole]
[5]
  pKa: 5.4

## CC(=O)Nc1nc(C)c(-c2csc(Nc3cccc(O)c3)n2)s1 [Compound 7]
Human topo IIα [1]
  IC50: 33.7 µM

## CCC(=O)Nc1nc(C)c(-c2csc(Nc3ccc(C(=O)O)cc3)n2)s1 [Compound 13]
Human topo IIα [1]
  IC50: 123 µM
Bacterial DNA gyrase
  IC50: 1.1 µM

## CC(=O)Nc1nc(C)c(-c2csc(Nc3ccc(O)cc3)n2)s1 [Compound 12]
Human topo IIα [1]
  IC50: 193 µM
Bacterial DNA gyrase
  IC50: 30 µM

## CO[C@@H]1[C@@H](OC(N)=O)[C@@H](O)[C@H](Oc2ccc3c(O)c(NC(=O)c4ccc(O)c(CC=C(C)C)c4)c(=O)oc3c2C)OC1(C)C [novobiocin, reference compound]
Human topo IIα [4]; 10 μM control
  Rate ATPase activity: 0.14 µmol/min

## Cc1cc(NS(=O)(=O)c2ccc(Nc3nc(-c4sc(N)nc4C)cs3)cc2)no1 [Compound 4]
Human topo IIα [1]
  IC50: 30.1 µM
